PMC7897990, “TriTOX: A novel Trichomonas vaginalis assay platform for high-throughput screening of compound libraries” (International Journal for Parasitology: Drugs and Drug …, 2021)
Entries after “also recorded” stand apart in the source; their conditions may differ. Where two headings read alike, the source gives them in different places.

Tests used:
T. vaginalis = assay: Medium-throughput (MTS) confirmatory dose-response growth assay, T. vaginalis; type: cell-based, Trichomonas vaginalis; settings: for activity against T. vaginalis in MTS, in words: 10-point dilution series, 96-well; for activity against T. vaginalis in MTS, in words / IC50: 48 h; for IC50: 96-well, 10,000 cells/mL in 50 μL, mean ± SEM, >10 = no appreciable activity at highest dose; for species-specificity T. vaginalis vs T. foetus in MTS: comparison of MTS IC50 in both species
Description: (§1) For microtiter plate assays, trichomonads were grown in anaerobic conditions within GasPak EZ anaerobe pouches with fresh anaerobic sachets. Working reagent of the chromogen was phenol red (Sigma) in a 1% w/v working solution in phosphate buffered saline (PBS), which was filter sterilised. Chromogen absorbance was monitored at 570 nm on an absorbance microplate reader after plates were allowed to equilibrate in atmospheric conditions at room temperature for at least 5 min.
(§2) After absorbances were measured, data were processed as followed unless indicated otherwise in the text. […] Prism 8 (GraphPad) was used to plot dose-response curves and calculate IC50 values, using a least squares regression, log[inhibitor] vs normalised response (variable slope, four parameters) model. Where replicate plates were used, data for dose-response curves were plotted as the mean±SD of these replicates.
(§3) A selection of 17 compounds assayed in the high-throughput screen (HTS) for T. vaginalis which were available through BioAustralis were obtained for validation of inhibitory in/activity in our optimised medium-throughput format. For this, a 10-point serial dilution was used for drug-susceptibility testing to calculate IC50 values of ‘hit’ compounds. Mtz was used as a positive control. Each screen was performed with 3 technical replicates and a minimum of 2 biological replicates in both T. vaginalis and T. foetus using assay conditions of seeds of 10,000 cells/mL in 50 μL, with absorbance measured at 48 h. Dose response curves and IC50 were calculated for each compound as described above in Section 2.3.

T. foetus = assay: Medium-throughput (MTS) confirmatory dose-response growth assay, T. foetus; type: cell-based, Tritrichomonas foetus; settings: 48 h; for IC50: 96-well, 10,000 cells/mL in 50 μL, mean ± SEM, >10 = no appreciable activity at highest dose; for activity against T. foetus in MTS, in words: 10-point dilution series, 96-well
Description: as §1, §2, §3

[1] = system: Trichomonas vaginalis G3 trophozoites; settings: for T. vaginalis HTS results: 10% chromogen, single concentration; for T.vaginalis_Absorbance_Rep1: replicate 1, raw absorbance; for T.vaginalis_Absorbance_Rep2: replicate 2, raw absorbance
[2] = system: Trichomonas vaginalis G3 trophozoites; assay: microbe, parasite or virus in culture; settings: 48 h
[3] = system: nontumorigenic neonatal foreskin fibroblast (NFF) cell line; settings: NFF_NS1 screen at 5 µg/mL
[4] = 384-well, 25 μL, 10,000 cells/mL, 48 h, biological duplicates
[5] = read-out: T.vaginalis_%inb_Rep1
[6] = read-out: T.vaginalis_%inb_Rep2
[7] = HTS, parasite screen at 1 µg/mL

SMILES | activity against T. vaginalis in MTS, in words (T. vaginalis) | inhibition of growth at 1 µg/mL [2, 5] [%] | inhibition of growth at 1 µg/mL [2, 6] [%] | T.vaginalis_Absorbance_Rep1 [1, 7] | T.vaginalis_Absorbance_Rep2 [1, 7] | NFF_Activity [3] | also measured
CCC(=C/[C@H](C)C/C=C/C(C)=C/[C@@H](C)C(=O)[C@@H](C)[C@H](O)[C@@H](C)C/C(C)=C/C(=O)O)/C=C/[C@@H]1OC(=O)C=C[C@@H]1C [Leptomycin B, leptomycin B] | no activity |  |  |  |  |  | IC50 (T. vaginalis; Trichomonas vaginalis): > 10 µM; IC50 (T. foetus; Tritrichomonas foetus): > 10 µM
CC(C=CC(=O)NOC1OC(CO)C(O)C(O)C1O)=CC(C)C(=O)c1ccc(N(C)C)cc1 (centres unmarked) [Trichostatin C, trichostatin C, reference compound] | true negatives |  |  |  |  |  | T. vaginalis HTS results [1, 4]: I; T.vaginalis_%inb_Rep1 ([1]; HTS, parasite screen at 1 µg/mL, replicate 1): 10.28%; T.vaginalis_%inb_Rep2 ([1]; HTS, parasite screen at 1 µg/mL, replicate 2): 10.24%; IC50 (T. vaginalis): > 10 µM; IC50 (T. foetus): > 10 µM
COC(=O)c1ccc(CCCCCCCCCCc2ccc(C(=O)OC)nc2)cn1 [Penicolinate A, penicolinate A] | true positives |  |  |  |  |  | T.vaginalis_%inb_Rep1 ([1]; HTS replicate 1, parasite screen 1 µg/mL): 78.85%; T.vaginalis_%inb_Rep2 ([1]; HTS replicate 2, parasite screen 1 µg/mL): 85.50%; IC50 (T. vaginalis): 2.7 ± 0.9 µM; species-specificity T. vaginalis vs T. foetus in MTS (T. vaginalis): selective activity against T. vaginalis but not T. foetus; activity against T. foetus in MTS, in words (T. foetus): weak activity
CSC[S@+]([O-])C[C@H](CO)NC(=O)/C=C/c1c(C)[nH]c(=O)[nH]c1=O [Sparsomycin, sparsomycin] | true positives |  |  |  |  |  | IC50 (T. vaginalis; Trichomonas vaginalis): 2.3 µM; species-specificity T. vaginalis vs T. foetus in MTS (T. vaginalis): selective activity against T. vaginalis but not T. foetus; IC50 (T. foetus; Tritrichomonas foetus): > 10 µM
COc1cc(C)c(C(=O)Oc2cc(C)c(C(=O)O)c(O)c2C)c(OC)c1C [Diffractaic acid] |  | 13.8 | 12.3 | 0.965 | 0.79 | I (otherwise these were reported as inactive (I)) | 
CCC(C)CC1CCC(O)(C(C)(O)C(=O)NC2C(=O)N3NCCCC3C(=O)N(O)C(C)C(=O)NCC(=O)N3NCCCC3C(=O)N(O)C(C)C(=O)OC2C(C)C)OC1C (centres unmarked) [L 156602] | true positives |  |  |  |  |  | IC50 (T. vaginalis): 0.059 ± 0.004 µM; IC50 (T. foetus): 0.44 ± 0.18 µM
C[C@@](O)(/C=C/[C@H]1CC=CC(=O)O1)[C@@H](C[C@@H](O)\C=C/C=C\C=C\CO)OP(=O)(O)O [Fostriecin] |  | 13.7 | 13.8 | 0.964 | 0.811 | I (otherwise these were reported as inactive (I)) | 
O=c1c(-c2ccc(O)cc2)coc2cc(O)cc(O)c12 [Genistein] |  | 15.3 | 12.4 | 1.004 | 0.828 | I (otherwise these were reported as inactive (I)) | 
CC[C@H](C)[C@H]1C(=O)O[C@H](C(C)C)C(=O)N(C)[C@@H](C(C)C)C(=O)O[C@H](C(C)C)C(=O)N(C)[C@@H](C(C)C)C(=O)O[C@H](C(C)C)C(=O)N1C [Enniatin B1] |  | 13.9 | 15 | 0.967 | 0.828 | I (otherwise these were reported as inactive (I)) | 
C[C@H]1C(=O)N2c3ccccc3[C@@]3(O)C[C@@H]4C(=O)N[C@](C)(c5nc6ccccc6c(=O)n54)N1[C@@H]23 [Fumiquinazoline D] |  | 13.7 | 15.9 | 0.964 | 0.84 | I (otherwise these were reported as inactive (I)) | 
CO[C@H]1C[C@@H]2CC[C@@H](C)[C@@](O)(O2)C(=O)C(=O)N2CCCC[C@H]2C(=O)O[C@H]([C@H](C)C[C@@H]2CC[C@@H](OCCO)[C@H](OC)C2)CC(=O)[C@H](C)/C=C(\C)[C@@H](O)[C@@H](OC)C(=O)[C@H](C)C[C@H](C)/C=C/C=C/C=C/1C [Everolimus] |  | 14.8 | 10.1 | 0.983 | 0.76 | I (otherwise these were reported as inactive (I)) | 
COc1cc(C)c(C(=O)Oc2cc(C)c(C(=O)O)c(O)c2)c(O)c1 [Evernic acid] |  | 11.5 | 11.2 | 0.922 | 0.775 | I (otherwise these were reported as inactive (I)) | 
C/C(=C\c1csc(C)n1)[C@@H]1C[C@@H]2O[C@@H]2CCC[C@H](C)[C@H](O)[C@@H](C)C(=O)C(C)(C)[C@@H](O)CC(=O)O1 [Epothilone A] |  | 71.4 | 87 | 2.11 | 1.991 | I (otherwise these were reported as inactive (I)) | 
CC(C)[C@H]1C(=O)O[C@H](C(C)C)C(=O)N(C)[C@@H](C(C)C)C(=O)O[C@H](C(C)C)C(=O)N(C)[C@@H](C(C)C)C(=O)O[C@H](C(C)C)C(=O)N1C [Enniatin B] |  | 15.2 | 5.42 | 0.992 | 0.695 | I (otherwise these were reported as inactive (I)) | 
C=Cc1cc(OC)c2c(c1)c(=O)oc1c2cc(OC)c2c(O)ccc([C@H]3O[C@H](C)[C@H](O)[C@H](O)[C@H]3O)c21 [Gilvocarcin V] |  | 4.46 | 4.55 | 0.79 | 0.706 | I (otherwise these were reported as inactive (I)) | 
CCC(=O)CCCCC[C@@H]1NC(=O)[C@H]2CCCCN2C(=O)[C@H]([C@@H](C)CC)NC(=O)[C@H](Cc2cn(OC)c3ccccc23)NC1=O [Apicidin, apicidin] | confirmed active; also recorded: micromolar IC50 values |  |  |  |  |  | T. vaginalis HTS results [1, 4]: I; T. vaginalis HTS result in words ([1]; 384-well, 25 μL, 10,000 cells/mL, 48 h, biological duplicates, hit = >50% inhibition): inactive in both T. vaginalis HTS replicates; IC50 (T. vaginalis; Trichomonas vaginalis): 1.2 ± 0.1 µM; activity against T. foetus in MTS, in words (T. foetus): micromolar IC50 values; IC50 (T. foetus; Tritrichomonas foetus): 1.9 ± 0.2 µM
CC(C=CC1OC(=O)C=CC1C)=CC(C)CC=CC(C)=CC(C)C(=O)C(C)C(O)C(C)CC(C)=CC(=O)O (centres unmarked) [Leptomycin A, leptomycin A] | true negatives |  |  |  |  |  | T. vaginalis HTS results [1, 4]: I; IC50 (T. vaginalis): > 10 µM; IC50 (T. foetus): > 10 µM
CC[C@@H]1C[C@H]2CC[C@H](O2)[C@H](C)C(=O)O[C@@H](C)C[C@@H]2CC[C@@H](O2)[C@@H](C)C(=O)O[C@H](CC)C[C@H]2CC[C@H](O2)[C@H](C)C(=O)O[C@@H](C)C[C@@H]2CC[C@@H](O2)[C@@H](C)C(=O)O1 [Dinactin] |  | 8.56 | 8.17 | 0.868 | 0.733 | I (otherwise these were reported as inactive (I)) | 
CCCCc1ccc(C(=O)O)nc1 [Fusaric acid] |  | 13.9 | 15.8 | 0.976 | 0.881 | I (otherwise these were reported as inactive (I)) | 
